{
  "source": "patent US20220081412A1",
  "about": "“QUINOLINYL-PYRAZINE-CARBOXAMIDE COMPOUNDS AND USES THEREOF” (The Regents of the University of Michigan, priority 2018, published 2022)",
  "system": "NCI60 cell lines",
  "assay": "NCI60 cell line panel",
  "format": "cell-based, human",
  "protocol": "The Developmental Therapeutics Program (DTP) of NCI has evaluated more than 100,000 pure compounds and more than 34,000 crude extracts against the panel of human tumor cell lines. The resultant data are analyzed using a program called COMPARE, that rank the entire database of tested compounds in the order of the similarity of the responses. […] Thus, the NCI60 databases is highly useful to the cancer research community. Further experiments were conducted that tested some of the active compounds in a panel of NCI60 cell line to relate our compounds with some known inhibitors to have an idea of possible mechanism of action.\nIn order to understand the selectivity of these compounds in different cancer types, some of them were tested against a panel of 60 cell lines (Table XXXIX).",
  "data": [
    {"smiles": "CCN(CC)CCCC(C)Nc1cnc(C(=O)Nc2cc(C)cc3cccnc23)cn1", "note": "(centres unmarked) [J4, 5-((5-(diethylamino)pentan-2-yl)amino)-N-(6-methylquinolin-8-yl)pyrazine-2-carboxamide]", "values": [
      {"measurement": "GIPRCNT: % Growth inhibition", "setting": "Breast Cancer, BT-549", "result": 93.26, "unit": "%"},
      {"measurement": "GIPRCNT: % Growth inhibition", "setting": "Breast Cancer, HS 578T", "result": 79.89, "unit": "%"},
      {"measurement": "GIPRCNT: % Growth inhibition", "setting": "Breast Cancer, MCF7", "result": 57.27, "unit": "%"},
      {"measurement": "GIPRCNT: % Growth inhibition", "setting": "Breast Cancer, MDA-MB-231/ATCC", "result": 89.17, "unit": "%"},
      {"measurement": "GIPRCNT: % Growth inhibition", "setting": "Breast Cancer, MDA-MB-468", "result": 9.358, "unit": "%"},
      {"measurement": "GIPRCNT: % Growth inhibition", "setting": "Breast Cancer, T-47D", "result": 32.641, "unit": "%"},
      {"measurement": "GIPRCNT: % Growth inhibition", "setting": "CNS Cancer, SF-268", "result": 66.12, "unit": "%"},
      {"measurement": "GIPRCNT: % Growth inhibition", "setting": "CNS Cancer, SF-295", "result": 98.94, "unit": "%"},
      {"measurement": "GIPRCNT: % Growth inhibition", "setting": "CNS Cancer, SF-539", "result": 86.87, "unit": "%"},
      {"measurement": "GIPRCNT: % Growth inhibition", "setting": "CNS Cancer, SNB-19", "result": 89.24, "unit": "%"},
      {"measurement": "GIPRCNT: % Growth inhibition", "setting": "CNS Cancer, SNB-75", "result": 78.26, "unit": "%"},
      {"measurement": "GIPRCNT: % Growth inhibition", "setting": "CNS Cancer, U251", "result": 78.39, "unit": "%"},
      {"measurement": "GIPRCNT: % Growth inhibition", "setting": "Colon Cancer, COLO 205", "result": 37.0068, "unit": "%"},
      {"measurement": "GIPRCNT: % Growth inhibition", "setting": "Colon Cancer, HCC-2998", "result": 89.8, "unit": "%"},
      {"measurement": "GIPRCNT: % Growth inhibition", "setting": "Colon Cancer, HCT-15", "result": 59.89, "unit": "%"},
      {"measurement": "GIPRCNT: % Growth inhibition", "setting": "Colon Cancer, HCT-116", "result": 18.05, "unit": "%"},
      {"measurement": "GIPRCNT: % Growth inhibition", "setting": "Colon Cancer, HT29", "result": 37.31, "unit": "%"},
      {"measurement": "GIPRCNT: % Growth inhibition", "setting": "Colon Cancer, KM12", "result": 97.9, "unit": "%"},
      {"measurement": "GIPRCNT: % Growth inhibition", "setting": "Colon Cancer, SW-620", "result": 75.26, "unit": "%"},
      {"measurement": "GIPRCNT: % Growth inhibition", "setting": "Leukemia, CCRF-CEM", "result": 54.24, "unit": "%"},
      {"measurement": "GIPRCNT: % Growth inhibition", "setting": "Leukemia, HL-60(TB)", "result": 76.8, "unit": "%"},
      {"measurement": "GIPRCNT: % Growth inhibition", "setting": "Leukemia, K-562", "result": 25.88, "unit": "%"},
      {"measurement": "GIPRCNT: % Growth inhibition", "setting": "Leukemia, MOLT-4", "result": 46.46, "unit": "%"},
      {"measurement": "GIPRCNT: % Growth inhibition", "setting": "Leukemia, RPMI-8226", "result": 77.97, "unit": "%"},
      {"measurement": "GIPRCNT: % Growth inhibition", "setting": "Leukemia, SR", "result": 81.88, "unit": "%"},
      {"measurement": "GIPRCNT: % Growth inhibition", "setting": "Melanoma, LOX IMVI", "result": 87, "unit": "%"},
      {"measurement": "GIPRCNT: % Growth inhibition", "setting": "Melanoma, M14", "result": 98.61, "unit": "%"},
      {"measurement": "GIPRCNT: % Growth inhibition", "setting": "Melanoma, MALME-3M", "result": 107.0521, "unit": "%"},
      {"measurement": "GIPRCNT: % Growth inhibition", "setting": "Melanoma, MDA-MB-435", "result": 83.68, "unit": "%"},
      {"measurement": "GIPRCNT: % Growth inhibition", "setting": "Melanoma, SK-MEL-2", "result": 104.3875, "unit": "%"},
      {"measurement": "GIPRCNT: % Growth inhibition", "setting": "Melanoma, SK-MEL-5", "result": 83.12, "unit": "%"},
      {"measurement": "GIPRCNT: % Growth inhibition", "setting": "Melanoma, UACC-62", "result": 98.62, "unit": "%"},
      {"measurement": "GIPRCNT: % Growth inhibition", "setting": "Melanoma, UACC-257", "result": 71.75, "unit": "%"},
      {"measurement": "GIPRCNT: % Growth inhibition", "setting": "Non-Small Cell Lung Cancer, A549/ATCC", "result": 72.8, "unit": "%"},
      {"measurement": "GIPRCNT: % Growth inhibition", "setting": "Non-Small Cell Lung Cancer, EKVX", "result": 77.77, "unit": "%"},
      {"measurement": "GIPRCNT: % Growth inhibition", "setting": "Non-Small Cell Lung Cancer, HOP-62", "result": 91.15, "unit": "%"},
      {"measurement": "GIPRCNT: % Growth inhibition", "setting": "Non-Small Cell Lung Cancer, HOP-92", "result": 51.4, "unit": "%"},
      {"measurement": "GIPRCNT: % Growth inhibition", "setting": "Non-Small Cell Lung Cancer, NCI-H23", "result": 96.3, "unit": "%"},
      {"measurement": "GIPRCNT: % Growth inhibition", "setting": "Non-Small Cell Lung Cancer, NCI-H226", "result": 60.39, "unit": "%"},
      {"measurement": "GIPRCNT: % Growth inhibition", "setting": "Non-Small Cell Lung Cancer, NCI-H322M", "result": 84.18, "unit": "%"},
      {"measurement": "GIPRCNT: % Growth inhibition", "setting": "Non-Small Cell Lung Cancer, NCI-H460", "result": 79.5, "unit": "%"},
      {"measurement": "GIPRCNT: % Growth inhibition", "setting": "Non-Small Cell Lung Cancer, NCI-H522", "result": 96.8365, "unit": "%"},
      {"measurement": "GIPRCNT: % Growth inhibition", "setting": "Ovarian Cancer, IGROV1", "result": 68.68, "unit": "%"},
      {"measurement": "GIPRCNT: % Growth inhibition", "setting": "Ovarian Cancer, NCI/ADR-RES", "result": 92.67, "unit": "%"},
      {"measurement": "GIPRCNT: % Growth inhibition", "setting": "Ovarian Cancer, OVCAR-3", "result": 20.46, "unit": "%"},
      {"measurement": "GIPRCNT: % Growth inhibition", "setting": "Ovarian Cancer, OVCAR-4", "result": 58.85, "unit": "%"},
      {"measurement": "GIPRCNT: % Growth inhibition", "setting": "Ovarian Cancer, OVCAR-5", "result": 97.58, "unit": "%"},
      {"measurement": "GIPRCNT: % Growth inhibition", "setting": "Ovarian Cancer, OVCAR-8", "result": 86.9118, "unit": "%"},
      {"measurement": "GIPRCNT: % Growth inhibition", "setting": "Ovarian Cancer, SK-OV-3", "result": 103.7568, "unit": "%"},
      {"measurement": "GIPRCNT: % Growth inhibition", "setting": "Prostate Cancer, DU-145", "result": 80.68, "unit": "%"},
      {"measurement": "GIPRCNT: % Growth inhibition", "setting": "Prostate Cancer, PC-3", "result": 83.08, "unit": "%"},
      {"measurement": "GIPRCNT: % Growth inhibition", "setting": "Renal Cancer, 786-0", "result": 88.22, "unit": "%"},
      {"measurement": "GIPRCNT: % Growth inhibition", "setting": "Renal Cancer, A498", "result": 70.33, "unit": "%"},
      {"measurement": "GIPRCNT: % Growth inhibition", "setting": "Renal Cancer, ACHN", "result": 77.87, "unit": "%"},
      {"measurement": "GIPRCNT: % Growth inhibition", "setting": "Renal Cancer, CAKI-1", "result": 93.45, "unit": "%"},
      {"measurement": "GIPRCNT: % Growth inhibition", "setting": "Renal Cancer, RXF 393", "result": 72.29, "unit": "%"},
      {"measurement": "GIPRCNT: % Growth inhibition", "setting": "Renal Cancer, SN12C", "result": 77.92, "unit": "%"},
      {"measurement": "GIPRCNT: % Growth inhibition", "setting": "Renal Cancer, TK-10", "result": 86.86, "unit": "%"},
      {"measurement": "GIPRCNT: % Growth inhibition", "setting": "Renal Cancer, UO-31", "result": 63.33, "unit": "%"}
    ]}
  ]
}
